Results from patent US20130052268A1, “COMPOSITIONS AND METHODS FOR TREATMENT OF PARKINSON'S DISEASE” (THE MCLEAN HOSPITAL CORPORATION, priority 2010, published 2013).

Key:
Type in all cases: cell-based, mouse
SHH signaling [1] = assay: Acute treatment of ES-derived NP cells with SHH or cyclopamine, qPCR; settings: 6 hours
Procedure: For all other samples, total RNA was prepared using TriReagent (Sigma, St. Louis, Mo.) followed by further purification using RNeasy mini kit (Qiagen, Valencia, Calif.). For RT-PCR analysis, 2 ? g of RNA were transcribed into cDNA with the SuperScript™ II RT (Invitrogen, Carlsbad, Calif.) and oligo (dT) primers. For quantitative analysis of the expression level of mRNAs, real-time PCR analyses using SYBR green I were performed using a DNA engine Opticon™ (MJ Research, Waltham, Mass.). To reduce non-specific signals, oligonucleotides amplifying small amplicons were designed using the MacVector software (Oxford Molecular Ltd.: primers sequences are available upon request). Amplifications were performed in 25 μl containing 0.5 μM of each primer,
0.5×SYBR Green I (Molecular Probes, Oreg.), and 2 μl of 5 fold diluted cDNA. Fifty PCR cycles were performed with a temperature profile consisting of 95° C. for 30 sec, 55° C. for 30 sec, 72° C. for 30 sec, and 79° C. for 5 sec. The dissociation curve of each PCR product was determined to ensure that the observed fluorescent signals were only from specific PCR products. After each PCR cycle, the fluorescent signals were detected at 79° C. to melt primer dimers (Tms of all primer dimers used in this study were <76° C.). A standard curve was constructed using plasmid DNAs containing the GAPDH gene (from 10^2 to 10^8 molecules). The fluorescent signals from specific PCR products were normalized against that of the β-actin gene, and then relative values were calculated by setting the normalized value of control as 1 (or 100 in some cases). All reactions were repeated using more than three independent samples.
(§1) It was previously shown that SHH treatment could ventralize chick intermediate midbrain explants, accompanied by induction of Lmx1a and other ventral midbrain phenotype (Andersson et al., 2006b). […] ES-derived NP cells were treated with 500 ng/ml SHH or 1 μM cyclopamine for 6 hours and analyzed by qPCR.

SHH signaling [2] = assay: Wnt1 induction of Lmx1a in the presence of the SHH signaling inhibitor cyclopamine, qPCR at NP stage; settings: Wnt1-retrovirus transduced NP cells, 1 mM cyclopamine for 3 days
Procedure: FIG. 10A-B show interaction between SHH and other factors. […] J1 ES-derived NP cells were transduced with empty- or Wnt1-retrovirus and cultured in the absence or presence of […] cyclopamine for 3 days, and analyzed by qPCR at NP stage. […] NP stage cells were treated with 500 ng/ml of SHH or […] Cyclopamine for 6 hours and analyzed by qPCR.
as §1

ES cell-derived NP cells = assay: siRNA knock down of Lmx1a and Lmx1b in ES cell-derived NP and ND stage cells
Procedure: For siRNA transfection, NP stage cells were treated with 50 ng/ml FGF8 and 100 ng/ml SHH for 4 days to induce/proliferate mDA NPs, followed by transfection with siRNA using the Nucleofector (Amaxa, Walkersville, Md.) mouse stem cell kit with the program A-033 according to the manufacturer's instruction. Per transfection, 5×10^6 NP cells were treated with 480 pmol of siRNA, diluted in 10 ml of N3bFGF media (or N3 media for ND stage transfection) and plated in PLO/FN-coated multiwell plate, resulting in a final siRNA concentration of 48 nM. For ND stage transfection, cells were further differentiated in N3 media for 2 days before transfection. Multiple Stealth siRNAs were purchased from Invitrogen (Carlsbad, Calif.), screened for gene silencing efficiency by cotransfection with Lmx1a or Lmx1b-expressing plasmids and only siRNAs showing efficient gene silencing (>95%) was used for the experiments. The sequences of the siRNAs are as follows: the Lmx1a sense strand […] (SEQ ID NO: 1); the Lmx1a antisense strand […] (SEQ ID NO: 2); the Lmx1b sense strand […] (SEQ ID NO: 3); the Lmx1b antisense strand […] (SEQ ID NO: 4). Thirty hours after transfection, cells were fixed for immunocytochemistry or harvested for RNA preparation.
To further study the redundant function between Lmx1a and Lmx1b, experiments were carried out to knock down these genes using gene-specific siRNA approach. ES cell-derived NP cells were treated with SHH and FGF8 for 4 days to induce/proliferate mDA NPs, and then transfected with control siRNA, Lmx1a siRNA, Lmx1b siRNA or both Lmx1a/1b siRNAs using Nucleofector (Amaxa) and analyzed after 30 hours. […] This insignificant effect is in contrast with the robust induction effect observed in overexpression experiment (FIG. 5A). This can be explained by incomplete knockdown by siRNA and/or nonphysiological overexpression effect caused by retroviral transduction. […] Since Pitx3^+ cells were not yet detectable at this NP stage, the gene knockdown experiment was repeated at ND stage cells.

[3] = NP cells, 500 ng/ml SHH or 1 μM cyclopamine
[4] = ND stage, 30 hrs after transfection
[5] = NP stage, 30 hours after transfection
[6] = NP stage, 30 hours after transfection, 48 nM siRNA

CC1=C2C[C@H]3[C@@H](CC=C4C[C@@H](O)CC[C@@]43C)[C@@H]2CC[C@]12O[C@@H]1C[C@H](C)CN[C@H]1[C@H]2C [cyclopamine]
Lmx1a mRNA levels (SHH signaling [1]; [3]): no significant changes
Nurr1 mRNA levels (SHH signaling [1]; [3]): no significant changes
TH mRNA levels (SHH signaling [1]; [3]): no significant changes
mRNA level of Gli1 (SHH signaling [1]; NP stage cells, 500 ng/ml SHH or μM Cyclopamine): reduced
induction of Lmx1a gene expression by Wnt1 (SHH signaling [2]): not affected

Lmx1a siRNA: Stealth siRNA, sense GAGGAGAGCAUUCAAGGCCUCGUUU (SEQ ID NO: 1), antisense SEQ ID NO: 2 (antisense AAACGAGGCCUUGAAUGCUCUCCUC; Stealth modification, further chemistry not given here)
mRNA level of Lmx1a (ES cell-derived NP cells; [4]): significantly reduced
Nurr1 gene expression (ES cell-derived NP cells; [5]): did not have significant effect
Wnt1 gene expression (ES cell-derived NP cells; [5]): did not have significant effect
mRNA level of Lmx1a (ES cell-derived NP cells; [6]): significantly reduced

Lmx1b siRNA: Stealth siRNA, sense GGAACGACUCCAUCUUCCACGAUAU (SEQ ID NO: 3), antisense SEQ ID NO: 4 (antisense AUAUCGUGGAAGAUGGAGUCGUUCC; Stealth modification, further chemistry not given here)
mRNA level of Lmx1b (ES cell-derived NP cells; [4]): significantly reduced
Nurr1 gene expression (ES cell-derived NP cells; [5]): did not have significant effect
Wnt1 gene expression (ES cell-derived NP cells; [5]): did not have significant effect
mRNA level of Lmx1b (ES cell-derived NP cells; [6]): significantly reduced
